Source: US20120328521A1, “FORMULATIONS SUITABLE FOR PET IMAGING WITH HYDROPHOBIC PET AGENTS” (PIRAMAL IMAGING SA, priority 2009, published 2012)

Assays:
Type in all cases: physicochemical
[1] = Stability of formulation comprising HCl salt of compound 1 for 8 hours at room temperature (HPLC assay); conditions: for assay of HCl salt of compound 1, batch 01 / assay of HCl salt of compound 1, batch 02 / assay of HCl salt of compound 1, batch 03 / assay of HCl salt of compound 1, mean [%]: formulation I, 5.51 μg/mL; for assay of HCl salt of compound 1, mean [%]: mean of 3 batches
Experimental: Since solutions of stilbenes are light sensitive, the solutions were stored under light protection.
A solution was prepared containing 5.51 μg/mL HCl salt of compound 1 as in formulation I. Assay was analysed after different timepoints. Three individual batches were prepared and analysed for assay and particulate matter. From these solutions samples were taken and analysed by HPLC.
Table 1 indicates the results of stability testing up to 8 hours of 3 individually manufactured batches.

[2] = Particulate matter testing of formulation I (HIAC Royco Liquid Particle Counting System); conditions: up to 8 hours
Experimental: Solubility of the active was tested by visual inspection using an illuminated magnifying glass with black background and confirmed by experiments assessing particulate matter using the HIAC Royco, Liquid Particle Counting System, Model 9703.
The formation of particles was assessed using the HIAC Royco, Liquid Particle Counting System, Model 9703 and in addition to the channels normally inspected (10 μm and 25 μm), also the smaller channels (2 μm and 5 μm) were used to assess the stability of the formulation. The formulation I was sterile filtered and inspected at timepoint 1 hour and 8 hours.
Table 2 indicates the results of particulate matter testing up to 8 hours of 3 individually manufactured batches
Since the handling of the solutions was made under normal laboratory conditions, the particle background measured in the sterile filtered solutions have an exogenous nature.

[3] = Adsorption of compound 1 onto sterile filters (assay in filtrate of formulation II)
Experimental: Formulation II comprising compound 1 was prepared as indicated above and filtered using selected sterile filters. Adsorption of compound 1 was determined before and after filtration using different filter types. Table 3 indicates the results of adsorption experiments using different filters.
Only hydrophobic filters show a low amount of compound 1 adsorbed onto the filter material.

## CNc1ccc(/C=C/c2ccc(OCCOCCOCCF)cc2)cc1 [Compound 1]
[1]; HCl salt, 8 hours
  chemical stability in the formulation: chemically stable
[1]; time 1 hour
  assay of HCl salt of compound 1, batch 01: 100.2%
  assay of HCl salt of compound 1, batch 02: 98.3%
  assay of HCl salt of compound 1, batch 03: 96.9%
  assay of HCl salt of compound 1, mean [%]: 98.5%
[1]; time 2 hours
  assay of HCl salt of compound 1, batch 01: 101.2%
  assay of HCl salt of compound 1, batch 02: 98.4%
  assay of HCl salt of compound 1, batch 03: 97.17%
  assay of HCl salt of compound 1, mean [%]: 98.9%
[1]; time 3 hours
  assay of HCl salt of compound 1, batch 01: 101.1%
  assay of HCl salt of compound 1, batch 02: 98.7%
  assay of HCl salt of compound 1, batch 03: 96.2%
  assay of HCl salt of compound 1, mean [%]: 98.7%
[1]; time 4 hours
  assay of HCl salt of compound 1, batch 01: 101.2%
  assay of HCl salt of compound 1, batch 02: 98%
  assay of HCl salt of compound 1, batch 03: 97.4%
  assay of HCl salt of compound 1, mean [%]: 98.9%
[1]; time 5 hours
  assay of HCl salt of compound 1, batch 01: 101.5%
  assay of HCl salt of compound 1, batch 02: 98.6%
  assay of HCl salt of compound 1, batch 03: 96.6%
  assay of HCl salt of compound 1, mean [%]: 98.9%
[1]; time 6 hours
  assay of HCl salt of compound 1, batch 01: 101.5%
  assay of HCl salt of compound 1, batch 02: 98.7%
  assay of HCl salt of compound 1, batch 03: 95.7%
  assay of HCl salt of compound 1, mean [%]: 98.6%
[1]; time 7 hours
  assay of HCl salt of compound 1, batch 01: 101.7%
  assay of HCl salt of compound 1, batch 02: 98.5%
  assay of HCl salt of compound 1, batch 03: 96.5%
  assay of HCl salt of compound 1, mean [%]: 98.9%
[1]; time 8 hours
  assay of HCl salt of compound 1, batch 01: 102.7%
  assay of HCl salt of compound 1, batch 02: 98.7%
  assay of HCl salt of compound 1, batch 03: 96.5%
  assay of HCl salt of compound 1, mean [%]: 99.3%
[2]
  dissolution state / precipitation in formulation: remains dissolved and is not precipitating
[3]; Millipore Millex 0.2 μm, Order No SLGV013SL, PVDF, hydrophobic material rendered hydrophilic by surface modification
  Analysis of assay in filtrate: 97.3%
[3]; Sartorius Minisart 0.2 μm (blue), Order No 16534, Celluloseacetat, hydrophylic
  Analysis of assay in filtrate: 53%
[3]; Sartorius Minisart HY 0.2 μm, Order No 16596, PTFE, hydrophobic
  Analysis of assay in filtrate: 96.5%
[3]; Sartorius Minisart High Flow 0.2 μm, Order No 16532, PES, hydrophobic
  Analysis of assay in filtrate: 75%
[3]; only hydrophobic filters
  amount adsorbed onto the filter material: low amount
